These results are taken from publication PMC8692984 (Frontiers in Pharmacology, 2021).

For test [1], the target named is T1, α7 nAChRs (Homo sapiens, UniProt P36544). In words: cell-based. Particulars: Choline EC50 ± SEM at PNU120596-α7 nAChRs.
The target of test [2] is T1, α7 nAChRs. As to the kind of experiment: cell-based. To be noted: Choline EC50 ± SEM at TQS-α7 nAChRs.

T1 sequence (P36544 23-502): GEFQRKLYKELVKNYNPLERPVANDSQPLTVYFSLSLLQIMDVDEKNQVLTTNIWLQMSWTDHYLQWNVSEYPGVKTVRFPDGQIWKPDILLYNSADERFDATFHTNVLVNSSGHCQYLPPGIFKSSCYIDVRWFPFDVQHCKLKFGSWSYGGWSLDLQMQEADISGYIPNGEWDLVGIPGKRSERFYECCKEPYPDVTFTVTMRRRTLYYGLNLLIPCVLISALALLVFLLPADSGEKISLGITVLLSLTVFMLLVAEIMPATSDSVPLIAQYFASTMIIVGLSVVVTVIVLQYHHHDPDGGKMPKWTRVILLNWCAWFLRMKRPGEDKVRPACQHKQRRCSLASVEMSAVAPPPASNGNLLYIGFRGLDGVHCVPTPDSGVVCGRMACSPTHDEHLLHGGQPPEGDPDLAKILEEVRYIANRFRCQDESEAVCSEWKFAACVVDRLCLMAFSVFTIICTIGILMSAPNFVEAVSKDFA

As usually defined, the EC50 is the concentration that produces a half-maximal response. A lower EC50 goes with an effect from little substance. Take `C[N+](C)(C)CCO` [Choline, reference compound]: the concentration for a half-maximal effect (EC50) on α7 nAChRs [1] turned out to be 3 ± 0.26 µM; at α7 nAChRs [2], 9 ± 0.9 µM.
